Values quoted from earlier work as cited in patent US4970081A, “Controlled-release, low-dose aspirin formulation and method of treating vascular occlusive disease therewith” (Sterling Drug Inc., priority 1989, dated 1990).

Assays:
[1] = tested on: vascular occlusive events; details: oral aspirin, patients
thromboxane B2 (TX) = details: 1 mg every 30 minutes for 10 hours; at 10 hours
[2] = tested on: endothelial cyclooxygenase; details: at the doses given in most clinical trials
[3] = tested on: cyclooxygenase in platelets; details: by acetylating cyclooxygenase in platelets
prostacyclin (PC) = details: 1 mg every 30 minutes for 10 hours
[4] = prior art dosage forms

Structure (SMILES) | protection from vascular occlusive events [1] | decrease in serum TX (thromboxane B2 (TX)) [%] | effect on endothelial cyclooxygenase [2] | effect on platelet adhesiveness [3] | urinary PC (prostacyclin (PC)) | release rate [4] [mg per hour]
CC(=O)Oc1ccccc1C(=O)O [aspirin] | statistically significant protection | 66 | inhibits endothelial cyclooxygenase | significantly decreases platelet adhesiveness | unaltered | 
Nc1ccc(S(N)(=O)=O)cc1 [Sulfanilamide] |  |  |  |  |  | 4.5
